Test results reported in PubChem BioAssay AID1259407 (Chemical Carcinogenesis Research Information System (CCRIS), 2018).
Activity calls are given as the source filed them. How the calls were made is not given here.

Test system: CCRIS mutagenicity, Ames/micronucleus/aberration tests
Assay: CCRIS mutagenicity studies
[1] = End Point: IN VITRO CHROMOSOMAL ABERRATIONS, Test System: CHL CELLS, Metabolic Activation: RAT, LIVER, S-9, SODIUM PHENOBARBITAL AND 5,6-BENZOFLAVONE
[2] = Test System: AMES SALMONELLA TYPHIMURIUM, Strain/Indicator: TA98, Metabolic Activation: NONE, Method: PREINCUBATION
[3] = Test System: AMES SALMONELLA TYPHIMURIUM, Strain/Indicator: TA98, Metabolic Activation: RAT LIVER S-9, PHENOBARBITAL AND BETA-NAPHTHOFLAVONE, Method: PREINCUBATION
[4] = Test System: AMES SALMONELLA TYPHIMURIUM, Strain/Indicator: TA100, Metabolic Activation: NONE, Method: PREINCUBATION
[5] = Test System: AMES SALMONELLA TYPHIMURIUM, Strain/Indicator: TA100, Metabolic Activation: RAT LIVER S-9, PHENOBARBITAL AND BETA-NAPHTHOFLAVONE, Method: PREINCUBATION
[6] = Test System: AMES SALMONELLA TYPHIMURIUM, Strain/Indicator: TA1535, Metabolic Activation: NONE, Method: PREINCUBATION
[7] = Test System: AMES SALMONELLA TYPHIMURIUM, Strain/Indicator: TA1535, Metabolic Activation: RAT LIVER S-9, PHENOBARBITAL AND BETA-NAPHTHOFLAVONE, Method: PREINCUBATION
[8] = Test System: AMES SALMONELLA TYPHIMURIUM, Strain/Indicator: TA1537, Metabolic Activation: RAT LIVER S-9, PHENOBARBITAL AND BETA-NAPHTHOFLAVONE, Method: PREINCUBATION
[9] = Test System: E.COLI, Strain/Indicator: WP2UVRA, Metabolic Activation: NONE, Method: PREINCUBATION
[10] = Test System: E.COLI, Strain/Indicator: WP2UVRA, Metabolic Activation: RAT LIVER S-9, PHENOBARBITAL AND BETA-NAPHTHOFLAVONE, Method: PREINCUBATION
[11] = Test System: AMES SALMONELLA TYPHIMURIUM, Strain/Indicator: TA1537, Metabolic Activation: NONE, Method: PREINCUBATION

Measured: mutagenic call

C/C=C/C=O
active: End Point: IN VITRO CHROMOSOMAL ABERRATIONS, Test System: CHINESE HAMSTER OVARY CELLS, Metabolic Activation: NONE active; positive | End Point: IN VITRO CHROMOSOMAL ABERRATIONS, Test System: CHINESE HAMSTER OVARY CELLS, Metabolic Activation: RAT, LIVER, S-9, AROCLOR 1254 active; positive | [1] active; positive (structural changes) | End Point: In vivo chromosomal aberrations, Test System: Bone marrow, Species: Mouse, Strain/Sex: Swiss/ 3 males and 2 females per group, Route: Intraperitoneal active; positive (statistically significant at all doses and durations) (structural aber | End Point: In vivo chromosomal aberrations, Test System: Spermatocytes, Species: Mouse, Strain/Sex: Swiss/males, Route: Intraperitoneal active; positive (dose-related) (autosomal univalents, x-y univalents, fragments or brea | Test System: AMES SALMONELLA TYPHIMURIUM, Strain/Indicator: TA98, Metabolic Activation: NONE, Method: FLUCTUATION (MICROTITER) active; positive | [2] active; positive | [3] active; positive | Test System: AMES SALMONELLA TYPHIMURIUM, Strain/Indicator: TA100, Metabolic Activation: NONE, Method: MODIFIED LIQUID SUSPENSION active; positive | [4] active; positive | Test System: AMES SALMONELLA TYPHIMURIUM, Strain/Indicator: TA100, Metabolic Activation: NONE, Method: PREINCUBATION (THREEFOLD CELL DENSITY) active; positive | [5] active; positive | Test System: AMES SALMONELLA TYPHIMURIUM, Strain/Indicator: TA100, Metabolic Activation: RAT, LIVER, S-9, AROCLOR 1254, Method: MODIFIED LIQUID SUSPENSION active; positive | Test System: AMES SALMONELLA TYPHIMURIUM, Strain/Indicator: TA100, Metabolic Activation: RAT, LIVER, S-9, AROCLOR 1254, Method: PREINCUBATION (THREEFOLD CELL DENSITY) active; positive | Test System: AMES SALMONELLA TYPHIMURIUM, Strain/Indicator: TA104, Metabolic Activation: NONE, Method: PREINCUBATION active; positive | Test System: AMES SALMONELLA TYPHIMURIUM, Strain/Indicator: TA7002, Metabolic Activation: NONE, Method: FLUCTUATION (MICROTITER) active; positive | Test System: AMES SALMONELLA TYPHIMURIUM, Strain/Indicator: TA7004, Metabolic Activation: NONE, Method: FLUCTUATION (MICROTITER) active; positive | Test System: AMES SALMONELLA TYPHIMURIUM, Strain/Indicator: TA7005, Metabolic Activation: NONE, Method: FLUCTUATION (MICROTITER) active; positive | Test System: AMES SALMONELLA TYPHIMURIUM, Strain/Indicator: TA7006, Metabolic Activation: NONE, Method: FLUCTUATION (MICROTITER) active; positive
inactive: [6] inactive; negative | [7] inactive; negative | Test System: AMES SALMONELLA TYPHIMURIUM, Strain/Indicator: TA1537, Metabolic Activation: NONE, Method: FLUCTUATION (MICROTITER) inactive; negative | [8] inactive; negative | Test System: AMES SALMONELLA TYPHIMURIUM, Strain/Indicator: TA7001, Metabolic Activation: NONE, Method: FLUCTUATION (MICROTITER) inactive; negative | Test System: AMES SALMONELLA TYPHIMURIUM, Strain/Indicator: TA7003, Metabolic Activation: NONE, Method: FLUCTUATION (MICROTITER) inactive; negative | Test System: CHINESE HAMSTER OVARY, Strain/Indicator: AS52/6-THIOGUANINE, Metabolic Activation: NONE, Method: STANDARD PLATE inactive; negative | [9] inactive; negative | [10] inactive; negative

O=NN1CN2CN(C1)CN(N=O)C2
active: [1] active; positive (structural and ploidy changes) | [4] active; positive | [5] active; positive | [10] active; positive
inactive: [2] inactive; negative | [3] inactive; negative | [6] inactive; negative | [7] inactive; negative | [11] inactive; negative | [8] inactive; negative | Test System: AMES SALMONELLA TYPHIMURIUM, Strain/Indicator: TA1538, Metabolic Activation: NONE, Method: PREINCUBATION inactive; negative | Test System: AMES SALMONELLA TYPHIMURIUM, Strain/Indicator: TA1538, Metabolic Activation: RAT LIVER S-9, PHENOBARBITAL AND BETA-NAPHTHOFLAVONE, Method: PREINCUBATION inactive; negative | [9] inactive; negative

Nc1ccc2c(=O)[nH]sc2c1
inactive: Test System: AMES SALMONELLA TYPHIMURIUM, Strain/Indicator: TA98, Metabolic Activation: NONE, Method: STANDARD PLATE inactive; negative | Test System: AMES SALMONELLA TYPHIMURIUM, Strain/Indicator: TA98, Metabolic Activation: S-9, Method: STANDARD PLATE inactive; negative | Test System: AMES SALMONELLA TYPHIMURIUM, Strain/Indicator: TA100, Metabolic Activation: NONE, Method: STANDARD PLATE inactive; negative | Test System: AMES SALMONELLA TYPHIMURIUM, Strain/Indicator: TA100, Metabolic Activation: S-9, Method: STANDARD PLATE inactive; negative | Test System: AMES SALMONELLA TYPHIMURIUM, Strain/Indicator: TA1535, Metabolic Activation: NONE, Method: STANDARD PLATE inactive; negative | Test System: AMES SALMONELLA TYPHIMURIUM, Strain/Indicator: TA1535, Metabolic Activation: S-9, Method: STANDARD PLATE inactive; negative | Test System: AMES SALMONELLA TYPHIMURIUM, Strain/Indicator: TA1537, Metabolic Activation: NONE, Method: STANDARD PLATE inactive; negative | Test System: AMES SALMONELLA TYPHIMURIUM, Strain/Indicator: TA1537, Metabolic Activation: S-9, Method: STANDARD PLATE inactive; negative

CC(=O)OCc1ccc2c(c1)OCO2
inactive: Test System: AMES SALMONELLA TYPHIMURIUM, Strain/Indicator: TA98, Metabolic Activation: HAMSTER, LIVER, S-9, AROCLOR 1254 (10%), Method: PREINCUBATION inactive; negative | [2] inactive; negative | Test System: AMES SALMONELLA TYPHIMURIUM, Strain/Indicator: TA98, Metabolic Activation: RAT, LIVER, S-9, AROCLOR 1254 (10%), Method: PREINCUBATION inactive; negative | Test System: AMES SALMONELLA TYPHIMURIUM, Strain/Indicator: TA100, Metabolic Activation: HAMSTER, LIVER, S-9, AROCLOR 1254 (10%), Method: PREINCUBATION inactive; negative | [4] inactive; negative | Test System: AMES SALMONELLA TYPHIMURIUM, Strain/Indicator: TA100, Metabolic Activation: RAT, LIVER, S-9, AROCLOR 1254 (10%), Method: PREINCUBATION inactive; negative | Test System: AMES SALMONELLA TYPHIMURIUM, Strain/Indicator: TA1535, Metabolic Activation: HAMSTER, LIVER, S-9, AROCLOR 1254 (10%), Method: PREINCUBATION inactive; negative | [6] inactive; negative | Test System: AMES SALMONELLA TYPHIMURIUM, Strain/Indicator: TA1535, Metabolic Activation: RAT, LIVER, S-9, AROCLOR 1254 (10%), Method: PREINCUBATION inactive; negative | Test System: AMES SALMONELLA TYPHIMURIUM, Strain/Indicator: TA1537, Metabolic Activation: HAMSTER, LIVER, S-9, AROCLOR 1254 (10%), Method: PREINCUBATION inactive; negative | [11] inactive; negative | Test System: AMES SALMONELLA TYPHIMURIUM, Strain/Indicator: TA1537, Metabolic Activation: RAT, LIVER, S-9, AROCLOR 1254 (10%), Method: PREINCUBATION inactive; negative
